{"source": "patent US20260224588A1", "about": "“BENZODIAZEPINONE-DERIVED INHIBITORS OF EGFR AND HER2” (The Research Foundation for the State University of New York, priority 2023, published 2026)", "assay_in_all_cases": "KINOMEscan", "format_in_all_cases": "binding", "settings_in_all_cases": "1 μM of compound 4; read-out: POC", "key": {"[1]": {"target": "ADCK4 (Homo sapiens, UniProt Q96D53)"}, "[2]": {"target": "T1, STK33 (Homo sapiens, UniProt Q9BYT3)", "T1 construct": "purchased Eurofins DiscoverX (KINOMEscan service)"}, "[3]": {"target": "T2, HASPIN (Homo sapiens, UniProt Q8TF76)", "T2 construct": "purchased Eurofins DiscoverX Corporation"}, "[4]": {"target": "PKAC-alpha (Homo sapiens, UniProt P17612)"}, "[5]": {"target": "IGF1R (Homo sapiens, UniProt P08069)"}, "[6]": {"target": "T3, PCTK2 (Homo sapiens, UniProt Q00537)", "T3 construct": "purchased Eurofins DiscoverX Corporation (KINOMEscan)"}, "[7]": {"target": "MEK6 (Homo sapiens, UniProt P52564)"}, "[8]": {"target": "IRAK1 (Homo sapiens, UniProt P51617)"}, "[9]": {"target": "PKAC-beta (Homo sapiens, UniProt P22694)"}, "[10]": {"target": "T4, SRC (Homo sapiens, UniProt P12931)", "T4 construct": "purchased Eurofins DiscoverX (KINOMEscan service)"}, "[11]": {"target": "PRKG2 (Homo sapiens, UniProt Q13237)"}, "[12]": {"target": "KIT(V559D + V654A) (Homo sapiens, UniProt P10721, V559D/V654A)"}, "[13]": {"target": "T5, YANK1 (Homo sapiens, UniProt Q8WU08)", "T5 construct": "purchased Eurofins DiscoverX"}, "[14]": {"target": "T6, TGFBR2 (Homo sapiens, UniProt P37173)", "T6 construct": "purchased Eurofins DiscoverX Corporation", "T6 sequence (P37173 23-567)": "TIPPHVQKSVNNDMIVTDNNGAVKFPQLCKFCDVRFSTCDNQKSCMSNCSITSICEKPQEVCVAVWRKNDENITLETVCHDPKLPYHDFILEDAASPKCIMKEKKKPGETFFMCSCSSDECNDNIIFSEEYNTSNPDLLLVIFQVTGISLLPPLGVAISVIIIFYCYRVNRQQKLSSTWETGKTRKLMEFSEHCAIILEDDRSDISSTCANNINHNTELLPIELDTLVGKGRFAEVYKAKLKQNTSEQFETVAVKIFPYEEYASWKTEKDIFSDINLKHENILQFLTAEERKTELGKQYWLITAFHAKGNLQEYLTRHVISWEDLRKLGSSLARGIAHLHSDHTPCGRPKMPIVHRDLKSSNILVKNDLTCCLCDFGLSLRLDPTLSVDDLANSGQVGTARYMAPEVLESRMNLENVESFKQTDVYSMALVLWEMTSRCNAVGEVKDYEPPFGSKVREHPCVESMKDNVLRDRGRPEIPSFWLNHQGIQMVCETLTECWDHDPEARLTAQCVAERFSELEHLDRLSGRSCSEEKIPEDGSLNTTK"}, "[15]": {"target": "T7, AAK1 (Homo sapiens, UniProt Q2M2I8)", "T7 construct": "purchased Eurofins DiscoverX Corporation"}, "[16]": {"target": "DMPK (Homo sapiens, UniProt Q09013)"}, "[17]": {"target": "T8, SRPK3 (Homo sapiens, UniProt Q9UPE1)", "T8 construct": "purchased Eurofins DiscoverX (KINOMEscan service)"}, "[18]": {"target": "MEK2 (Homo sapiens, UniProt P36507)"}, "[19]": {"target": "T9, S6K1 (Homo sapiens, UniProt P23443)", "T9 construct": "purchased Eurofins DiscoverX (KINOMEscan service)"}, "[20]": {"target": "T10, YANK2 (Homo sapiens, UniProt Q9NY57)", "T10 construct": "purchased Eurofins DiscoverX"}, "[21]": {"target": "T11, ABL1(E255K)-phosphorylated (Homo sapiens, UniProt P00519, E255K)", "T11 construct": "purchased Eurofins DiscoverX Corporation"}, "[22]": {"target": "T12, RPS6KA4(Kin.Dom.2-C-terminal) (Homo sapiens, UniProt O75676)", "T12 construct": "RPS6KA4(Kin.Dom.2-C-terminal); purchased Eurofins DiscoverX Corporation (KINOMEscan screening service)"}, "[23]": {"target": "DAPK3 (Homo sapiens, UniProt O43293)"}, "[24]": {"target": "DDR2 (Homo sapiens, UniProt Q16832)"}, "[25]": {"target": "T13, RIOK1 (Homo sapiens, UniProt Q9BRS2)", "T13 construct": "purchased Eurofins DiscoverX Corporation (KINOMEscan screening service)"}, "[26]": {"target": "T14, SGK (Homo sapiens, UniProt O00141)", "T14 construct": "purchased Eurofins DiscoverX (KINOMEscan service)", "T14 sequence (O00141 whole entry)": "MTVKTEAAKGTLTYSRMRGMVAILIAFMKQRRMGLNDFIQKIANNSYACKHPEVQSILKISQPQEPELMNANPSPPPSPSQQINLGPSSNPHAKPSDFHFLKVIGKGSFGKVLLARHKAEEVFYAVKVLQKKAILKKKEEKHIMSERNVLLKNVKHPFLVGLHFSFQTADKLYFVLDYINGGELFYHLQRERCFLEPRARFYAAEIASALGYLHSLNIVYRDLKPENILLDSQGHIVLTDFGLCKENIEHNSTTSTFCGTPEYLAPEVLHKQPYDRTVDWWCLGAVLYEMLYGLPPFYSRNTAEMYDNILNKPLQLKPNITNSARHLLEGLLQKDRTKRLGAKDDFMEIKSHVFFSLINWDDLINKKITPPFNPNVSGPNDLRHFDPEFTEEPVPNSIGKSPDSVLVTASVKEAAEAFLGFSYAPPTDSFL"}, "[27]": {"target": "T15, PCTK3 (Homo sapiens, UniProt Q07002)", "T15 construct": "purchased Eurofins DiscoverX Corporation (KINOMEscan)"}, "[28]": {"target": "T16, RSK2(Kin.Dom.1-N-terminal) (Homo sapiens, UniProt P51812)", "T16 construct": "RSK2(Kin.Dom.1-N-terminal); purchased Eurofins DiscoverX Corporation (KINOMEscan screening service)"}, "[29]": {"target": "T17, SNARK (Homo sapiens, UniProt Q9H093)", "T17 construct": "purchased Eurofins DiscoverX (KINOMEscan service)", "T17 sequence (Q9H093 whole entry)": "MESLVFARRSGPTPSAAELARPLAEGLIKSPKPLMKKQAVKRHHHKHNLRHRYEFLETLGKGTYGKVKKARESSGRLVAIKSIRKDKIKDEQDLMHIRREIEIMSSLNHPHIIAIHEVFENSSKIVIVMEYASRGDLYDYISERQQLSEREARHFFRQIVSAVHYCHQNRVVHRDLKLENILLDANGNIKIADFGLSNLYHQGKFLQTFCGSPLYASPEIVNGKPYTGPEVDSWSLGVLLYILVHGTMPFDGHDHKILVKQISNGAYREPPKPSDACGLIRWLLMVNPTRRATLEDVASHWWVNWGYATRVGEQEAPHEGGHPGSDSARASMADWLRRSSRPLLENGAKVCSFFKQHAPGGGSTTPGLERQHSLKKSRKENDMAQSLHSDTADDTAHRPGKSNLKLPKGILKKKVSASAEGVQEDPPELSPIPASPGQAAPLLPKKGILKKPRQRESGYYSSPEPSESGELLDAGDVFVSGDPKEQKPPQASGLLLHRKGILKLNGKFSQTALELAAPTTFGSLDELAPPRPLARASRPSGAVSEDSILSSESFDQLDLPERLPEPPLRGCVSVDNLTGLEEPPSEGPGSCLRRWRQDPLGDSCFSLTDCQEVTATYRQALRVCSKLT"}, "[30]": {"target": "AXL (Homo sapiens, UniProt P30530)", "sequence (P30530 26-894)": "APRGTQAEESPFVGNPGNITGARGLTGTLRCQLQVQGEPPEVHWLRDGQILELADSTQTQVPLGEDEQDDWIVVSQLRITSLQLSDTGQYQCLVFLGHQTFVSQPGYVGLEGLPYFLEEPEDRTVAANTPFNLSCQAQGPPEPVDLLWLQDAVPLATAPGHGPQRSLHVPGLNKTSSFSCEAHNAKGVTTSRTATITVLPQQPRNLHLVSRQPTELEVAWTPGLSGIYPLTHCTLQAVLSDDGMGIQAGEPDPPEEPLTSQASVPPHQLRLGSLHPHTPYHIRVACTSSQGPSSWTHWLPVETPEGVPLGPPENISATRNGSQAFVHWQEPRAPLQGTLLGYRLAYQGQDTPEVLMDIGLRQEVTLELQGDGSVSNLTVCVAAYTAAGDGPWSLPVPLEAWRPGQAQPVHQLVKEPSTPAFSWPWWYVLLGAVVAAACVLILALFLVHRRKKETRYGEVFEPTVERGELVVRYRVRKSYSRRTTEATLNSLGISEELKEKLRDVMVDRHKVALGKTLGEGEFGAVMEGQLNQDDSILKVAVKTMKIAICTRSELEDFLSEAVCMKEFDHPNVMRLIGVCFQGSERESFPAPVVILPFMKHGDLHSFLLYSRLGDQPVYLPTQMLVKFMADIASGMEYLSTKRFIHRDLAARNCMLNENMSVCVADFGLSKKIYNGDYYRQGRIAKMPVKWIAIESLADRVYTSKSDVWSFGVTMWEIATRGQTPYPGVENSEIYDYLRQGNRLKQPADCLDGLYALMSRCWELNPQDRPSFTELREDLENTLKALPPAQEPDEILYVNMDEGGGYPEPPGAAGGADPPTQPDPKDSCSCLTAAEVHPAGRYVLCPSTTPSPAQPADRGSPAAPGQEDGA"}, "[31]": {"target": "PRKR (Homo sapiens, UniProt P19525)"}, "[32]": {"target": "T18, TBK1 (Homo sapiens, UniProt Q9UHD2)", "T18 construct": "purchased Eurofins DiscoverX Corporation"}, "[33]": {"target": "T19, RAF1 (Homo sapiens, UniProt P04049)", "T19 construct": "purchased Eurofins DiscoverX Corporation (KINOMEscan screening service)", "T19 sequence (P04049 whole entry)": "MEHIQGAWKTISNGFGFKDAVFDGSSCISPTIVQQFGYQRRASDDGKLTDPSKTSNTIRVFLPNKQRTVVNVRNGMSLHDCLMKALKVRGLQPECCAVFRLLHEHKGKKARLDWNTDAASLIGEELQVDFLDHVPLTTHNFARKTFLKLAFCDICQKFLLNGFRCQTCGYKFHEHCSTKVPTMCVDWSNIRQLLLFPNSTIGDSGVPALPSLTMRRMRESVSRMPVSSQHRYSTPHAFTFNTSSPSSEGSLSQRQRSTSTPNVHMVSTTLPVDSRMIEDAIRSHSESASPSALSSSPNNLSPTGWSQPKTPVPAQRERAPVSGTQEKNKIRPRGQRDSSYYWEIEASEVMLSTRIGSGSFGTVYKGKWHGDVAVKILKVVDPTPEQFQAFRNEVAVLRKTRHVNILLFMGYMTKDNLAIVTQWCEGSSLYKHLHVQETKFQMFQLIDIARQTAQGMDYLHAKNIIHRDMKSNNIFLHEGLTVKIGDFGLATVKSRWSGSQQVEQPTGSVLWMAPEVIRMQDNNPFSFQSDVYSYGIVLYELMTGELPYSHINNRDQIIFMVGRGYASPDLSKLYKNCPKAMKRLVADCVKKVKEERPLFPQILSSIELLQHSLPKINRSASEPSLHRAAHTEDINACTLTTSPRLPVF"}, "[34]": {"target": "PLK4 (Homo sapiens, UniProt O00444)", "sequence (O00444 whole entry)": "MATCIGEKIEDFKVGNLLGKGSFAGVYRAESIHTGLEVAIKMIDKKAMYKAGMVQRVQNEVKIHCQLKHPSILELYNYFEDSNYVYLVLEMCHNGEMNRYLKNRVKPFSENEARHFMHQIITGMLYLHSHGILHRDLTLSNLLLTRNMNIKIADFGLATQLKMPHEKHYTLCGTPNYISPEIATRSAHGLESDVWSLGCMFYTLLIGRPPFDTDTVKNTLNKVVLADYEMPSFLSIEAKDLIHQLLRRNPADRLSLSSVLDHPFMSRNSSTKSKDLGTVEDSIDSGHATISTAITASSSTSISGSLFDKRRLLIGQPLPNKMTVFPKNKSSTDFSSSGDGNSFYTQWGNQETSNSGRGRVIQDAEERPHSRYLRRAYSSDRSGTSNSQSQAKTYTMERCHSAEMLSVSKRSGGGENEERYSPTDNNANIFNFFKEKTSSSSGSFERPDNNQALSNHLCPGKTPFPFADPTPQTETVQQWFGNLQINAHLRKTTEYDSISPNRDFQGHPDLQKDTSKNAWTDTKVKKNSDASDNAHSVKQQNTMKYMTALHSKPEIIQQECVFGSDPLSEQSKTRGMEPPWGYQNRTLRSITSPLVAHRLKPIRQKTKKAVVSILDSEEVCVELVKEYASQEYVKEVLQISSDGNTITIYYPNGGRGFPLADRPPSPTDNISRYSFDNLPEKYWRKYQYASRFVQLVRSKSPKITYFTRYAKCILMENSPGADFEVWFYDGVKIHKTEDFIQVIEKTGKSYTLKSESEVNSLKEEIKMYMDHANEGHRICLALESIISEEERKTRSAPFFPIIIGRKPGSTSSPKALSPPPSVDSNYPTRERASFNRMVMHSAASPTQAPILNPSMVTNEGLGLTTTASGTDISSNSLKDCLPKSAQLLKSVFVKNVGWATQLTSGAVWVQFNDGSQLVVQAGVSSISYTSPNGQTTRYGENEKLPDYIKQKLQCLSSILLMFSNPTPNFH"}, "[35]": {"target": "T20, FGFR1 (Homo sapiens, UniProt P11362)", "T20 construct": "purchased Eurofins DiscoverX Corporation", "T20 sequence (P11362 22-822)": "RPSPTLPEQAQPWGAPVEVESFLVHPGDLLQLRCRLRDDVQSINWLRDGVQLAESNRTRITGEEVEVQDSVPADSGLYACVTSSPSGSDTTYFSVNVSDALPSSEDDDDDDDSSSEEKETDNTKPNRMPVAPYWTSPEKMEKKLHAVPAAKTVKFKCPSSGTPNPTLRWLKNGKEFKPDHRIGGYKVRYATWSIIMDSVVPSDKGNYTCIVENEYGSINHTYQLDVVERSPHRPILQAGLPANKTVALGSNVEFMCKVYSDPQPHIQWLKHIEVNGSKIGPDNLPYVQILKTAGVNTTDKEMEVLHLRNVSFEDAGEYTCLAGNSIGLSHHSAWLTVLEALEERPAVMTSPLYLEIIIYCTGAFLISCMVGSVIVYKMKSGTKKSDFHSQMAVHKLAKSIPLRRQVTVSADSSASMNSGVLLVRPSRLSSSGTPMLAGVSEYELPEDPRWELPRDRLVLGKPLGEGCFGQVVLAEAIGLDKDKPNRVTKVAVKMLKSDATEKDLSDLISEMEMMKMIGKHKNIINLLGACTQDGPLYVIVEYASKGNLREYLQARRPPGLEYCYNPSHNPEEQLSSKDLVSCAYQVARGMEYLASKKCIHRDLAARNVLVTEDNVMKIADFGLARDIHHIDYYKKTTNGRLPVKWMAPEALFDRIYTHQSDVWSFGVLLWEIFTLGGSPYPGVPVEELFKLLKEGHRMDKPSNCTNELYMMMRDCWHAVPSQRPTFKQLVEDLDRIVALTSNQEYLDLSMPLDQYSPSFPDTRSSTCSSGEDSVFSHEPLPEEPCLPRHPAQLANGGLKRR"}, "[36]": {"target": "MLK3 (Homo sapiens, UniProt Q16584)"}, "[37]": {"target": "T21, SYK (Homo sapiens, UniProt P43405)", "T21 construct": "purchased Eurofins DiscoverX Corporation"}, "[38]": {"target": "CAMK2B (Homo sapiens, UniProt Q13554)"}}}
{"smiles": "C=CC(=O)Nc1ccc(OC)c(Nc2cc(-c3[nH]c(CC)nc3-c3cccc(NC(=O)c4cccc5c4NC(=O)c4ccccc4N5)c3)ccn2)c1", "note": "[Compound 4, N-(3-(5-(2-((5-Acrylamido-2-methoxyphenyl)amino)pyridin-4-yl)-2-ethyl-1H-imidazol-4-yl)phenyl)-11-oxo-10,11-dihydro-5H-dibenzo[b,e][1,4]diazepine-9-carboxamide]", "values": [{"measurement": "remaining binding at 1 µM", "setting": "[1]", "result": 85, "unit": "%"}, {"measurement": "remaining binding at 1 µM", "setting": "[2]", "result": 100, "unit": "%"}, {"measurement": "remaining binding at 1 µM", "setting": "[3]", "result": 100, "unit": "%"}, {"measurement": "remaining binding at 1 µM", "setting": "[4]", "result": 100, "unit": "%"}, {"measurement": "remaining binding at 1 µM", "setting": "[5]", "result": 90, "unit": "%"}, {"measurement": "remaining binding at 1 µM", "setting": "[6]", "result": 100, "unit": "%"}, {"measurement": "remaining binding at 1 µM", "setting": "[7]", "result": 73, "unit": "%"}, {"measurement": "remaining binding at 1 µM", "setting": "[8]", "result": 85, "unit": "%"}, {"measurement": "remaining binding at 1 µM", "setting": "[9]", "result": 98, "unit": "%"}, {"measurement": "remaining binding at 1 µM", "setting": "[10]", "result": 73, "unit": "%"}, {"measurement": "remaining binding at 1 µM", "setting": "[11]", "result": 62, "unit": "%"}, {"measurement": "remaining binding at 1 µM", "setting": "[12]", "result": 93, "unit": "%"}, {"measurement": "remaining binding at 1 µM", "setting": "[13]", "result": 84, "unit": "%"}, {"measurement": "remaining binding at 1 µM", "setting": "[14]", "result": 75, "unit": "%"}, {"measurement": "remaining binding at 1 µM", "setting": "[15]", "result": 100, "unit": "%"}, {"measurement": "remaining binding at 1 µM", "setting": "[16]", "result": 45, "unit": "%"}, {"measurement": "remaining binding at 1 µM", "setting": "[17]", "result": 100, "unit": "%"}, {"measurement": "remaining binding at 1 µM", "setting": "[18]", "result": 100, "unit": "%"}, {"measurement": "remaining binding at 1 µM", "setting": "[19]", "result": 100, "unit": "%"}, {"measurement": "remaining binding at 1 µM", "setting": "[20]", "result": 63, "unit": "%"}, {"measurement": "remaining binding at 1 µM", "setting": "[21]", "result": 65, "unit": "%"}, {"measurement": "remaining binding at 1 µM", "setting": "[22]", "result": 75, "unit": "%"}, {"measurement": "remaining binding at 1 µM", "setting": "[23]", "result": 62, "unit": "%"}, {"measurement": "remaining binding at 1 µM", "setting": "[24]", "result": 100, "unit": "%"}, {"measurement": "remaining binding at 1 µM", "setting": "[25]", "result": 100, "unit": "%"}, {"measurement": "remaining binding at 1 µM", "setting": "[26]", "result": 86, "unit": "%"}, {"measurement": "remaining binding at 1 µM", "setting": "[27]", "result": 93, "unit": "%"}, {"measurement": "remaining binding at 1 µM", "setting": "[28]", "result": 100, "unit": "%"}, {"measurement": "remaining binding at 1 µM", "setting": "[29]", "result": 100, "unit": "%"}, {"measurement": "remaining binding at 1 µM", "setting": "[30]", "result": 98, "unit": "%"}, {"measurement": "remaining binding at 1 µM", "setting": "[31]", "result": 87, "unit": "%"}, {"measurement": "remaining binding at 1 µM", "setting": "[32]", "result": 95, "unit": "%"}, {"measurement": "remaining binding at 1 µM", "setting": "[33]", "result": 73, "unit": "%"}, {"measurement": "remaining binding at 1 µM", "setting": "[34]", "result": 71, "unit": "%"}, {"measurement": "remaining binding at 1 µM", "setting": "[35]", "result": 86, "unit": "%"}, {"measurement": "remaining binding at 1 µM", "setting": "[36]", "result": 97, "unit": "%"}, {"measurement": "remaining binding at 1 µM", "setting": "[37]", "result": 63, "unit": "%"}, {"measurement": "remaining binding at 1 µM", "setting": "[38]", "result": 72, "unit": "%"}]}
